Laboratory results reported in ChEMBL document CHEMBL1201862, “PubChem BioAssay data set” (2004).
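Assay format: 96-well plates, 48-hour exposure. The concentration for 50% growth inhibition is given as GI50.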 Active and inactive are the calls of the source. Rule as the data show it: active = GI50 up to about 1.1 µM and inactive = higher.

Key:
Assay in all cases: DTP human tumour cell line panel, 48 h
[1] = test system: CCRF-CEM
[2] = test system: EKVX
[3] = test system: SNB-75
[4] = test system: HCC 2998
[5] = test system: U-251
[6] = test system: HT-29
[7] = test system: SNB-19
[8] = test system: MDA-MB-231
[9] = test system: HOP-92
[10] = test system: ACHN
[11] = test system: T47D
[12] = test system: SK-MEL-5
[13] = test system: SR
[14] = test system: HCT-116
[15] = test system: NCI-H23
[16] = test system: DU-145
[17] = test system: NCI/ADR-RES
[18] = test system: COLO 205
[19] = test system: RPMI-8226
[20] = test system: MCF7

Measured: GI50

Cn1c(=O)c2nc(CCNC(=O)c3ccccc3)[nH]c2n(C)c1=O
inactive: [1] > 100 µM | [2] > 100 µM | [3] > 100 µM | [4] > 100 µM | [5] > 100 µM | [6] > 100 µM | [7] > 100 µM | [8] > 100 µM | [9] > 100 µM | [10] > 100 µM | [11] > 100 µM | [12] > 100 µM | [13] > 100 µM | [14] > 100 µM | [15] > 100 µM | [16] > 100 µM | [17] > 100 µM

NC(=O)C[S+]([O-])CC(N)C(=O)O (stereo not drawn)
inactive: [2] > 100 µM | [3] > 100 µM | [4] > 100 µM | [5] > 100 µM | [6] > 100 µM | [7] > 100 µM | [8] > 100 µM | [9] > 100 µM | [10] > 100 µM | [11] > 100 µM | [12] > 100 µM | [13] > 100 µM | [14] > 100 µM | [15] > 100 µM | [16] > 100 µM | [17] > 100 µM

C=CCc1cccc2cc(C(N)=O)c(=N)oc12
inactive: [18] > 100 µM | [1] 52.8 µM | [3] 54.7 µM | [4] > 100 µM | [5] > 100 µM | [6] > 100 µM | [7] > 100 µM | [8] > 100 µM | [9] 68.7 µM | [10] 61.9 µM | [11] 41.5 µM | [12] > 100 µM | [13] 40.6 µM | [14] 78.2 µM | [15] > 100 µM | [19] > 100 µM | [16] > 100 µM | [17] > 100 µM

Cc1ccccc1NC(=O)C(=O)CC(=O)c1sc(Nc2ccccc2[N+](=O)[O-])nc1C
inactive: [18] 86.1 µM | [2] 34 µM | [4] 24.4 µM | [5] 30.3 µM | [6] 26.7 µM | [7] 34.7 µM | [8] 17.3 µM | [9] 29.3 µM | [10] 20.3 µM | [11] 27.2 µM | [12] 27.8 µM | [14] 29.7 µM | [15] 36.8 µM | [19] 27.9 µM | [16] 50 µM | [17] 41.2 µM | [20] 23.9 µM

CN(C)c1cccc2c(S(=O)(=O)NCCN)cccc12 [DANSYL ETHYLENEDIAMINE]
inactive: [18] > 100 µM | [1] > 100 µM | [2] > 100 µM | [3] 4.74 µM | [4] 39.5 µM | [5] > 100 µM | [6] > 100 µM | [7] > 100 µM | [8] > 100 µM | [9] > 100 µM | [10] > 100 µM | [11] > 100 µM | [12] 46.2 µM | [13] > 100 µM | [14] 35.2 µM | [15] > 100 µM | [16] > 100 µM | [17] > 100 µM

COc1ccc(/C=C2\CCC(C)/C(=C\c3ccc(OC)c(OC)c3)C2=O)cc1OC (stereo not drawn)
inactive: [18] 8.39 µM | [1] 2.11 µM | [2] 2.13 µM | [5] 5.43 µM | [6] 4.38 µM | [7] 11.2 µM | [8] 7.8 µM | [10] 4.79 µM | [11] 3.35 µM | [12] 3.61 µM | [14] 3.78 µM | [15] 3.94 µM | [19] 2.51 µM | [16] 3.73 µM | [17] 3.5 µM | [20] 4.85 µM

Oc1ccc(/C=N/CC2CCCN3CCCCC23)cc1 (stereo not drawn)
inactive: [18] 27.6 µM | [2] 27.5 µM | [3] 51.8 µM | [4] 20 µM | [5] 17.6 µM | [6] 16.6 µM | [7] 25.3 µM | [8] 28.8 µM | [9] 24.2 µM | [10] 15.5 µM | [11] 31.3 µM | [12] 20.5 µM | [14] 16.7 µM | [15] 24.9 µM | [19] 20.9 µM | [16] 16 µM | [17] 46.8 µM | [20] 18.3 µM

CC(N)C(C)Cc1ccccc1 (stereo not drawn)
inactive: [18] > 100 µM | [2] > 100 µM | [3] > 100 µM | [4] > 100 µM | [5] > 100 µM | [6] > 100 µM | [7] > 100 µM | [8] > 100 µM | [9] 64.4 µM | [10] > 100 µM | [11] > 100 µM | [12] > 100 µM | [14] > 100 µM | [15] > 100 µM | [19] > 100 µM | [16] > 100 µM | [17] > 100 µM | [20] > 100 µM
